Reference: publication PMC8068820 (Viruses, 2021)
“Also recorded” adds a separate entry of the source.

Tests used:
human NTCP [1] = molecular target: T1, human NTCP (Homo sapiens, UniProt Q14973); test: [3H]taurocholic acid ([3H]TC) transport inhibition in NTCP-HEK293 cells; type: cell-based; settings: for IC50: NTCP-HEK293 cells
T1 construct: expressed in transfected cells
T1 sequence (Q14973 1-349): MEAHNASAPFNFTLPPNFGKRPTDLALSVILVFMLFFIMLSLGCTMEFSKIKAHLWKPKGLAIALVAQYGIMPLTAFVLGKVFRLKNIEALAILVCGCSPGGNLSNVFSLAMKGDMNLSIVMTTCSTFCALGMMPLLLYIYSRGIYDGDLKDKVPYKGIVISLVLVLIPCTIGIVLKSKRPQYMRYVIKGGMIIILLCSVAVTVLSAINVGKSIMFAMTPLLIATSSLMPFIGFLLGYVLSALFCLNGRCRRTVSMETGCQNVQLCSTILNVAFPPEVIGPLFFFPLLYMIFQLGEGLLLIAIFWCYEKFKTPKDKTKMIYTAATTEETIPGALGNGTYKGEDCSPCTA

human NTCP [2] = molecular target: T1, human NTCP; test: [3H]preS1 peptide; type: binding; settings: for remaining activity at 100 µM / inhibition at 100 µM: 100 µM inhibitor; for remaining activity at 100 µM: 5 nM [3H]preS1, pre-screen, read-out: remaining [3H]preS1 binding compared to untreated control; for virus/preS1 selectivity (in words): [3H]preS1 binding versus [3H]TC uptake inhibition; for [3H]preS1 binding inhibition (in words): 100 µM inhibitor where from Figure 6, SAR statements; for inhibition at 100 µM: 5 nM [3H]preS1, read-out: inhibition of [3H]preS1 peptide binding
NTCP-HepG2 cells = test: MTT cytotoxicity assay in NTCP-HepG2 cells; type: cell-based, human; settings: NTCP-HepG2 cells, 5, 50 and 300 µM, 6 h incubation
HDV = test: In vitro HDV infection of NTCP-HepG2 cells (HDAg immunostaining); type: cell-based, Hepatitis D virus; settings: 5 µM to 300 µM
[3] = 95% confidence interval, inhibition of 1 µM [3H]TC uptake, 10 min, 37 °C, read-out: IC50 ([3H]TC Uptake)
[4] = 95% confidence interval, inhibition of 5 nM [3H]preS1 binding, NTCP-HEK293 cells, 10 min, 37 °C, read-out: IC50 ([3H]preS1 Binding)
[5] = 5 nM [3H]preS1, NTCP-HEK293 cells, read-out: IC50 [3H]preS1 binding inhibition (single value)
[6] = 1 µM [3H]TC, read-out: IC50 taurocholic acid uptake inhibition (single value)

Row | Compound | [3H]preS1 binding inhibition (in words) (human NTCP [2]) | IC50 (human NTCP [1]; [3]) | remaining activity at 100 µM (human NTCP [2]) | IC50 (human NTCP [2]; [4]) | also measured
1 | O=C(Nc1ccc(Cl)cc1)c1cc(Oc2ccc(Cl)cc2)ccc1NS(=O)(=O)c1ccc(Cl)cc1 [A000028897] | – | 16 to 62 µM | < 50% | 3 to 24 µM | virus/preS1 selectivity (in words) (human NTCP [2]): more or less non-selective; Cytotoxicity (in words) (NTCP-HepG2 cells): obvious cytotoxicity even at low (5 µM) concentrations; also recorded: toxic
2 | O[C@@H](c1ccccc1)[C@@H](c1ccccn1)[C@H](Nc1ccccn1)c1cccc(Br)c1 [A000289041] | relatively high | > 1000 µM | < 50% | 35 to 224 µM | –
3 | O[C@H](c1ccc2ccccc2c1)[C@H](c1ccccn1)[C@@H](Nc1ccccn1)c1ccccc1 [A000294559] | significant but less potent | – | – | – | inhibition at 100 µM (human NTCP [2]): ≤ 50%
4 | O[C@H](c1ccccc1)[C@@H](c1ccc2ccccc2n1)[C@H](Nc1ccccn1)c1ccccc1 [A000295013] | – | > 1000 µM | < 50% | 73 to 194 µM | IC50 (human NTCP [2]; [5]): ~130 µM
5 | O[C@H](c1ccccc1)[C@@H](c1ccccn1)[C@H](Nc1ccc(F)cn1)c1ccccc1 [A000295230] | significant but less potent | – | – | – | inhibition at 100 µM (human NTCP [2]): ≤ 50%
6 | COc1ccc([C@H](O)[C@H](c2ccccn2)[C@@H](Nc2ccccn2)c2ccccc2)cc1 [A000295231] | even further improved the inhibitory potency | 341 to 1220 µM | < 50% | 4 to 29 µM | IC50 (human NTCP [1]; [6]): 780 µM; IC50 (human NTCP [2]; [5]): 17 µM; virus/preS1 selectivity (in words) (human NTCP [2]): some selectivity towards the virus receptor function of NTCP; inhibition of in vitro HDV infection (in words) (HDV): significant concentration-dependent inhibition; also recorded: active against in vitro HDV infection
7 | O[C@H](c1ccccc1)[C@@H](c1ccccn1)[C@H](Nc1ccccc1)c1ccccc1 [A000295238] | inactive | – | – | – | –
8 | COc1ccc(N[C@H](c2ccccc2)[C@H](c2ccccn2)[C@H](O)c2ccccc2)nc1 [A000295480] | relatively high | 145 to 1320 µM | < 50% | 32 to 297 µM | virus/preS1 selectivity (in words) (human NTCP [2]): more or less non-selective
9 | Nc1ccc([C@H](O)[C@H](c2ccccn2)[C@@H](Nc2ccccn2)c2ccccc2)cc1 [A000295724] | inactive | – | – | – | –
10 | O[C@@H](c1ccccc1)[C@H](c1ccccn1)[C@@H](Nc1ccc(Cl)cn1)c1ccccc1 [A000296575] | significant but less potent | – | – | – | inhibition at 100 µM (human NTCP [2]): ≤ 50%
11 | Oc1cccc([C@H](O)[C@H](c2ccccn2)[C@@H](Nc2ccccn2)c2ccccc2)c1 [A000296584] | significant, but less active inhibitors | – | – | – | –
12 | O[C@@H](c1ccccc1)[C@@H](c1ccccn1)[C@H](Nc1ccccn1)c1ccsc1 [A000344053] | significant but less potent | – | – | – | inhibition at 100 µM (human NTCP [2]): ≤ 50%
13 | O[C@@H](c1ccccc1)[C@H](c1ccccn1)[C@@H](Nc1ccccn1)c1ccccc1 [S957291] | significantly increased the inhibitory potency | – | – | – | [3H]TC uptake inhibition (in words) (human NTCP [1]; 100 µM inhibitor, Figure 6): significantly increased the inhibitory potency
14 | O[C@H](c1ccc([C@@H](O)[C@@H](c2ccccn2)[C@H](Nc2ccccn2)c2ccccc2)cc1)[C@@H](c1ccccn1)[C@H](Nc1ccccn1)c1ccccc1 [S973509] | – | 202 to 775 µM | < 50% | 3 to 10 µM | IC50 (human NTCP [1]; [6]): 490 µM; IC50 (human NTCP [2]; [5]): 7 µM; virus/preS1 selectivity (in words) (human NTCP [2]): some selectivity towards the virus receptor function of NTCP; inhibition of in vitro HDV infection (in words) (HDV): significant concentration-dependent inhibition; also recorded: active against in vitro HDV infection
15 | O=Cc1cccc([C@@H]([C@H](Nc2ccccn2)c2ccccc2)[C@@H](O)c2ccccc2)n1 [S985852] | – | 13 to 34 µM | < 50% | 8 to 24 µM | IC50 (human NTCP [1]; [6]): 24 µM; IC50 (human NTCP [2]; [5]): ~15 µM; virus/preS1 selectivity (in words) (human NTCP [2]): more or less non-selective; inhibition of in vitro HDV infection (in words) (HDV): significant concentration-dependent inhibition; also recorded: active against in vitro HDV infection; Cytotoxicity (in words) (NTCP-HepG2 cells): critical cytotoxicity at 300 µM

Second part, led by results:

Row | [3H]preS1 binding inhibition (in words) (human NTCP [2]) | Compound | IC50 (human NTCP [1]; [3]) | remaining activity at 100 µM (human NTCP [2]) | IC50 (human NTCP [2]; [4]) | also measured
16 | inactive | O[C@@H](c1cccnc1)[C@H](c1ccccn1)[C@@H](Nc1ccccn1)c1ccccc1 [S958009] | – | – | – | –
17 | significant, but less active inhibitors | COc1cccc([C@H](O)[C@H](c2ccccn2)[C@@H](Nc2ccccn2)c2ccccc2)c1 [S963601] | – | – | – | –
18 | relatively high | O[C@@H](c1ccccc1)[C@@H](c1ccccn1)[C@H](Nc1ccccn1)c1cccc2ccccc12 [S973515] | 413 to 1240 µM | < 50% | 39 to 148 µM | –
